The target of one series is Insulin receptor (Homo sapiens, UniProt P06213). Put plainly: Inhibition of IR by ELISA.
The target in series [1] is Insulin-like growth factor 1 receptor (Homo sapiens, UniProt P08069). Put plainly: Inhibition of IGF1R by ELISA.
A further series deals with MCF7. Put plainly: Antiproliferative activity against human MCF7 cells after 72 hrs by SRB assay. The format is functional, cell-based. To be noted: MCF7, 72 h. (In general: In SRB staining, fixed cells bind dye roughly in proportion to their protein.)
Series [2] can be described thus: Dissociation constant, pKa of the compound. The format is physicochemical.
The target of series [3] is Proto-oncogene tyrosine-protein kinase Src (Homo sapiens) (UniProt P12931). Put plainly: Inhibition of c-Src at 10 uM.

The source of these data is ChEMBL document CHEMBL1157631, “Discovery and SAR of thiazolidine-2,4-dione analogues as insulin-like growth factor-1 receptor (IGF-1R) inhibitors via hierarchical virtual screening” (J Med Chem, 2010).

What is called IC50 is the concentration at which inhibition is half-maximal. Broadly, the pKa is the negative logarithm of the acid dissociation constant.

The structures appear in SMILES notation. The source made the active and inactive calls. The rule behind the calls is not given here.

Chain of Insulin receptor (P06213 28-758 limits assumed): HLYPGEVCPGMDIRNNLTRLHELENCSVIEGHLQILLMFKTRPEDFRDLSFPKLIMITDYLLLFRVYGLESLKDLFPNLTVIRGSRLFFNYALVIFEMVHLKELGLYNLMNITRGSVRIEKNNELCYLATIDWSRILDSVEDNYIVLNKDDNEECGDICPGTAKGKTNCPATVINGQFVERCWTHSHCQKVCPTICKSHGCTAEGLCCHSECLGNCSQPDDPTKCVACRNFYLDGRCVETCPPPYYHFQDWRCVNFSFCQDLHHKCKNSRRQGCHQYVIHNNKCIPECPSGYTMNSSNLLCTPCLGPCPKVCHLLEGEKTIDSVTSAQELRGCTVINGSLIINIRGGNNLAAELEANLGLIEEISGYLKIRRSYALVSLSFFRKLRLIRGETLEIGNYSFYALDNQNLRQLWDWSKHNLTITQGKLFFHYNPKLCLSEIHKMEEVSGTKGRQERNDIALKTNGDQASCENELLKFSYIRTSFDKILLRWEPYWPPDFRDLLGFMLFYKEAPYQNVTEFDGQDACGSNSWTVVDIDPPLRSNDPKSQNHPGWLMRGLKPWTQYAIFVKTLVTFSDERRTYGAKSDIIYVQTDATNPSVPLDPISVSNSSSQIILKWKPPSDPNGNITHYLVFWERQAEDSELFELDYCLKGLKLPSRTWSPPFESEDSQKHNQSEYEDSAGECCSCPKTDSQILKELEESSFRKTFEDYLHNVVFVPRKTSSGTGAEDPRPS
Chain of Insulin receptor (P06213 763-1382 limits assumed): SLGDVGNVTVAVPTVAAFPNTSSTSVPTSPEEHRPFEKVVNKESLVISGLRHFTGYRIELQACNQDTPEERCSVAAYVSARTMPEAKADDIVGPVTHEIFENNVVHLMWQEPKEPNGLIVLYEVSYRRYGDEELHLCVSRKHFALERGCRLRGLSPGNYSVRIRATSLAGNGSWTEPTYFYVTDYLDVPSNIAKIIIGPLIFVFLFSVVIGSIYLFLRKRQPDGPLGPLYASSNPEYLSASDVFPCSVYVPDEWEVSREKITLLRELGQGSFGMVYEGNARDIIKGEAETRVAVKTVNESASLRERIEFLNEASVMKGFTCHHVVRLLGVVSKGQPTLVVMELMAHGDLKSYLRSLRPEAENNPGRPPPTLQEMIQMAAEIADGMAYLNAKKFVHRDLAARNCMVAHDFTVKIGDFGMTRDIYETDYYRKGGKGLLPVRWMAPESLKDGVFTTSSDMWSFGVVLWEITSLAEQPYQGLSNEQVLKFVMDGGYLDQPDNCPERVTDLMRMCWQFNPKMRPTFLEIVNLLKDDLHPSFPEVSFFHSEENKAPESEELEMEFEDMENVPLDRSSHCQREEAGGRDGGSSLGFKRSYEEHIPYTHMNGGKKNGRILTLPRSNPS
Chain of Insulin-like growth factor 1 receptor (P08069 31-736 limits assumed): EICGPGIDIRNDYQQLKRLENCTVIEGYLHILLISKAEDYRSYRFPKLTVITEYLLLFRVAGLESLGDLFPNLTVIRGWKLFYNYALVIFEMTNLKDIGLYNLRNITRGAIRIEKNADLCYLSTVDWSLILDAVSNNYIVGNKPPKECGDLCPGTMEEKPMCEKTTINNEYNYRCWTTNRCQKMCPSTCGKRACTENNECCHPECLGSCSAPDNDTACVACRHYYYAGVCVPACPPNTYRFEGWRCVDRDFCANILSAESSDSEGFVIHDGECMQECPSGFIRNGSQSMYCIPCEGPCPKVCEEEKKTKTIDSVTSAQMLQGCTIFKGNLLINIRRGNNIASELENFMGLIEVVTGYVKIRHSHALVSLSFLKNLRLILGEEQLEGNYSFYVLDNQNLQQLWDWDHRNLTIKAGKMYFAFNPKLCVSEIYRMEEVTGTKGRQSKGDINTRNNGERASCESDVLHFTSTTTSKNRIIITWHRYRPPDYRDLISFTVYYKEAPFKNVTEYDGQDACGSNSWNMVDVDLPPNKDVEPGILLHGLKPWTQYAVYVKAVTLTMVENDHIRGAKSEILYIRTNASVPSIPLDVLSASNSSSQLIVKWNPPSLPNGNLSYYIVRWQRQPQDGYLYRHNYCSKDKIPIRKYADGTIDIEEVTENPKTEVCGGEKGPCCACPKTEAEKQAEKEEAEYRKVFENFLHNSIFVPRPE
Chain of Insulin-like growth factor 1 receptor (P08069 741-1367 limits assumed): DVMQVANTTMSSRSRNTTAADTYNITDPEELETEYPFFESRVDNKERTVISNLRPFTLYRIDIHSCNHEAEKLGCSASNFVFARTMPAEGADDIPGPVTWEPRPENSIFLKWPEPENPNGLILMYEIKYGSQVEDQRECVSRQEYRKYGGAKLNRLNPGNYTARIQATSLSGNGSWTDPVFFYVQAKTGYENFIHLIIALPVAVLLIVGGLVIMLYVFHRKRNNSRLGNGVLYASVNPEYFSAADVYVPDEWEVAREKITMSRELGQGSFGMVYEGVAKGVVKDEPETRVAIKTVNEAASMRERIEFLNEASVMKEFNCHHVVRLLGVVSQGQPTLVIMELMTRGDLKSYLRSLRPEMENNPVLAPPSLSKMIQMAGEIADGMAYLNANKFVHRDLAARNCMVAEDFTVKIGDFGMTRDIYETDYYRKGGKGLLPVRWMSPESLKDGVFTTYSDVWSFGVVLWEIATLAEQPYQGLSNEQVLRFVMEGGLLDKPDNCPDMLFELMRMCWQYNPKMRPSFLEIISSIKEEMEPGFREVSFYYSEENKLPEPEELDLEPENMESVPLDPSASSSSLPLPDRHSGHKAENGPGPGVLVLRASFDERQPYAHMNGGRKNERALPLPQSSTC
Chain of Proto-oncogene tyrosine-protein kinase Src (Homo sapiens) (P12931 2-536 limits assumed): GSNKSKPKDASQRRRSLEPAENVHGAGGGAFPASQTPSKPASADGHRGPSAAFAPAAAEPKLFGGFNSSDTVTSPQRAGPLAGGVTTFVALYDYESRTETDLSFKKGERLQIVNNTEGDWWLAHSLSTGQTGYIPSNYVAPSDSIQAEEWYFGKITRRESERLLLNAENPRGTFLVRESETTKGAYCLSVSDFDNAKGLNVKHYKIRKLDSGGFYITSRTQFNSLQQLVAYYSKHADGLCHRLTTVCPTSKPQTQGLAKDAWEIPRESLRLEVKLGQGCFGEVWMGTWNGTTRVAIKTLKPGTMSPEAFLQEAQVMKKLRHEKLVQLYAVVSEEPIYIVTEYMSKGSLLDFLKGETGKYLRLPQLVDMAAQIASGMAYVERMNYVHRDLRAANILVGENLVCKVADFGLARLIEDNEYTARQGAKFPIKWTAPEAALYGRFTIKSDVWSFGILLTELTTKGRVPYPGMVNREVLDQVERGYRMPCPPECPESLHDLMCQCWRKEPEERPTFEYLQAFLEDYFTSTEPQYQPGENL

As to `CCOc1cc(Br)cc(/C=C2\SC(=O)NC2=O)c1O`, the IC50 on Insulin receptor was > 100 µM.
With `COc1cc(/C=C2/SC(=O)NC2=O)cc(I)c1O`, the IC50 is 6.3 µM in series [1], > 100 µM on Insulin receptor and 50.8 µM in the series on MCF7.
Regarding `C=CCc1cc(/C=C2\SC(=O)NC2=O)cc(OC)c1OC`, the IC50 in series [1] is > 100 µM.
On the same count and under the same terms, with `Cc1ccc(N2CCC(N3CCN(C(=O)N4CCOCC4)CC3)CC2)c2[nH]c(-c3c(N[C@@H](CO)Cc4ccccc4Br)cc[nH]c3=O)nc12` the figure was 0.009 µM.
Regarding `O=C1NC(=O)/C(=C\c2ccc(-c3ccc(F)c(Cl)c3)o2)S1`, the IC50 in series [1] was 0.28 µM; on Insulin receptor, > 100 µM; with MCF7, 16.9 µM.
As for `O=C1NC(=S)S/C1=C\c1ccc(-c2ccc(C(=O)O)cc2)o1`, the IC50 with MCF7 was determined as 41.9 µM.
For the molecule `O=C1NC(=O)/C(=C/c2ccccc2F)S1`, the IC50 was 6.6 µM in series [1], > 100 µM at Insulin receptor and > 100 µM in the series with MCF7.
`O=C1NC(=O)/C(=C\c2ccc(OCc3ccccc3Cl)cc2)S1`: the IC50 in series [1] is > 100 µM.
With `CCCCOc1ccc(/C=C2\SC(=O)NC2=O)cc1`, in series [1], the half-maximal inhibitory concentration (IC50) is > 100 µM.
`O=C1NC(=O)/C(=C\c2ccc(Cl)c(Cl)c2)S1`: the IC50 in series [1] is 8.8 µM; on Insulin receptor, > 100 µM; with MCF7, 50.8 µM.
For `O=C1NC(=O)/C(=C/c2ccc(-c3ccc(O)c(C(=O)O)c3)o2)S1`, the IC50 in the series on MCF7 amounted to 81.3 µM.
Still for that read-out and setting: with `O=C1NC(=S)S/C1=C\c1ccc(-c2ccccc2Cl)o1` the figure was > 100 µM.
Consider `O=C1NC(=O)/C(=C/c2ccc(Cl)cc2Cl)S1`, for which the IC50 in series [1] was 15 µM; on Insulin receptor, > 100 µM; in the series with MCF7, > 100 µM.
As to `CCc1ccc(/C=C2\SC(=O)NC2=O)cc1`, the values for the IC50 (in series [1]; on Insulin receptor) were 11.1 µM and > 100 µM, respectively.
With `CCOc1cc(/C=C2/SC(=O)NC2=O)cc(Br)c1O`, the IC50 in series [1] is 5.2 µM; against Insulin receptor, > 100 µM; with MCF7, 56.3 µM.
Turning to `CCC(C)COc1ccccc1/C=C1/SC(=O)NC1=O` (stereo not given), the 50% inhibitory concentration (IC50) in series [1] was 9 µM; on Insulin receptor, > 100 µM; in the series on MCF7, > 100 µM.
Molecule `O=C1NC(=O)/C(=C\c2ccc(-c3ccc(Cl)cc3Cl)o2)S1` showed an IC50 in the series with MCF7 of 17.3 µM.
With `CCOc1cc(/C=C2\SC(=O)NC2=O)c(Br)cc1OC`, the half-inhibitory concentration (IC50) in series [1] was > 100 µM.
The molecule `O=C1NC(=O)/C(=C\c2ccc(-c3ccc(Cl)c(Cl)c3)o2)S1` registered an IC50 with MCF7 of 14.8 µM. This molecule also registered a pKa in series [2] of 7.9.
With `O=C1NC(=O)/C(=C/c2cccc(OCc3ccc(Cl)cc3Cl)c2)S1`, the half-inhibitory concentration (IC50) was 1.6 µM in series [1], > 100 µM on Insulin receptor and 25.2 µM with MCF7.
As to `COc1cc(/C=C2/SC(=O)NC2=O)cc(OC)c1O`, the IC50 in series [1] is 5.3 µM; on Insulin receptor it was > 100 µM.
In series [1], `CCOc1ccc(/C=C2\SC(=O)NC2=O)cc1OCC(C)C` came in with an IC50 of 63.9 µM.
The same measure, in the same setting: with `O=C1NC(=O)/C(=C\c2ccc(N3CCCC3)c(F)c2)S1` the figure was > 100 µM.
For the molecule `O=C1NC(=O)/C(=C\c2ccc(-c3cccc(Cl)c3Cl)o2)S1`, the half-inhibitory concentration (IC50) in series [1] was 3.4 µM; against Insulin receptor, > 100 µM; in the series with MCF7 it was 21.5 µM.
As for `O=C1NC(=O)/C(=C\c2ccccc2OCc2ccc(Cl)cc2Cl)S1`, the IC50 in series [1] is > 100 µM.
Same read-out and setting: under `CCOc1cc(/C=C2/SC(=O)NC2=O)cc(Cl)c1OCC` stands 49.8 µM.
Take `O=C1NC(=O)/C(=C\c2ccc(-c3ccc(F)cc3)o2)S1`: the IC50 is 0.4 µM in series [1], > 100 µM against Insulin receptor and 36.9 µM in the series on MCF7.
On to `COc1cc(Br)cc(/C=C2\SC(=O)NC2=O)c1O`, for which, at Insulin receptor, the IC50 was > 100 µM. Further, in series [3], the outcome was Active.
Regarding `O=C1NC(=O)/C(=C\c2cccc([N+](=O)[O-])c2)S1`, the concentration for half-maximal inhibition (IC50) in series [1] was 4.9 µM; at Insulin receptor, > 100 µM; with MCF7, 55.8 µM.
In series [1], `CCC(=O)c1cccc(Nc2ccc3c(c2)/C(=C/Nc2ccc(N4CCN(C)CC4)cc2)C(=O)NC3=O)c1` showed an IC50 of 0.319 µM.
Regarding `Cc1ccc(-c2ccc(/C=C3/SC(=O)NC3=O)o2)c(Br)c1`, the IC50 in series [1] was 6.3 µM; against Insulin receptor, > 100 µM.
Take `CCOc1cc2c(cc1/C=C1\SC(=O)NC1=O)OCO2`: the results for the IC50 (in series [1]; on Insulin receptor; in the series with MCF7) were 10 µM, > 100 µM and > 100 µM, respectively.
Turning to `O=C1NC(=O)/C(=C\c2cc3c(cc2Br)OCO3)S1`, the IC50 in series [1] was 3.3 µM; against Insulin receptor, > 100 µM; in the series on MCF7, 24.8 µM.
As for `CCOc1ccc(/C=C2/SC(=O)NC2=O)cc1OC`, the half-inhibitory concentration (IC50) is > 100 µM against Insulin receptor and 87.3 µM in the series on MCF7.
For the molecule `CCOc1cccc(/C=C2/SC(=O)NC2=O)c1O`, the IC50 in series [1] was 8.6 µM; against Insulin receptor, > 100 µM; with MCF7, > 100 µM.
Consider `COc1c(Br)cc(/C=C2\SC(=O)NC2=O)cc1Br`, for which the IC50 in series [1] came out at 6.4 µM; against Insulin receptor, 65.3 µM.
As to `O=C1NC(=O)/C(=C\c2ccc(-c3cccc(Br)c3)o2)S1`, the results for the IC50 (in series [1]; at Insulin receptor; with MCF7) were 0.057 µM, 28 µM and 25.3 µM, respectively.
The corresponding values for `O=C1NC(=O)/C(=C\c2ccc(-c3ccc(Br)cc3)o2)S1` are 6.7 µM, > 100 µM and 47.3 µM.
In the case of `COc1cc(/C=C2\SC(=O)NC2=O)ccc1OCc1ccc(Cl)cc1Cl`, in series [1], the IC50 was > 100 µM.
Still for that read-out and setting: with `COc1cc(/C=C2/SC(=O)NC2=O)ccc1OCc1ccccc1` the figure was > 100 µM.
Same read-out and setting: under `CCCOc1c(Br)cc(/C=C2\SC(=O)NC2=O)cc1OCC` stands > 100 µM.
